Results as given in PubChem BioAssay (NCI).
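Compound exposure: 48 hours, 5 concentrations, 96-well plates. The concentration for 50% growth inhibition is given as GI50. The concentration for full growth arrest is given as TGI.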

Key:
Assay in all cases: growth of human tumour cells (NCI), 48 h
NCI-H23 lung = system: NCI-H23 lung
MALME-3M melanoma = system: MALME-3M melanoma
NCI-H460 lung = system: NCI-H460 lung
UACC-62 melanoma = system: UACC-62 melanoma
K-562 leukemia = system: K-562 leukemia
HOP-92 NSCLC = system: HOP-92 NSCLC
OVCAR-3 ovarian = system: OVCAR-3 ovarian
KM12 colon = system: KM12 colon
HCT-116 colon = system: HCT-116 colon
SK-OV-3 ovarian = system: SK-OV-3 ovarian
RXF 393 renal = system: RXF 393 renal
SF-268 CNS = system: SF-268 CNS
786-0 renal = system: 786-0 renal
EKVX NSCLC = system: EKVX NSCLC
CCRF-CEM leukemia = system: CCRF-CEM leukemia
M14 melanoma = system: M14 melanoma
NCI/ADR-RES ovarian = system: NCI/ADR-RES ovarian
SK-MEL-2 melanoma = system: SK-MEL-2 melanoma
SW-620 colon = system: SW-620 colon
HT29 colon = system: HT29 colon
OVCAR-8 ovarian = system: OVCAR-8 ovarian
HCT-15 colon = system: HCT-15 colon
HOP-62 NSCLC = system: HOP-62 NSCLC
U251 CNS = system: U251 CNS
HS 578T breast = system: HS 578T breast
UACC-257 melanoma = system: UACC-257 melanoma
DU-145 prostate = system: DU-145 prostate
BT-549 breast = system: BT-549 breast
A549 NSCLC = system: A549 NSCLC
SK-MEL-28 melanoma = system: SK-MEL-28 melanoma
T-47D breast = system: T-47D breast
RPMI-8226 leukemia = system: RPMI-8226 leukemia
CAKI-1 renal = system: CAKI-1 renal
ACHN renal = system: ACHN renal
COLO 205 colon = system: COLO 205 colon
TK-10 renal = system: TK-10 renal
SF-539 CNS = system: SF-539 CNS
SNB-75 CNS = system: SNB-75 CNS
PC-3 prostate = system: PC-3 prostate
SF-295 CNS = system: SF-295 CNS
LOX IMVI melanoma = system: LOX IMVI melanoma
NCI-H226 lung = system: NCI-H226 lung
MDA-MB-435 = system: MDA-MB-435
A498 renal = system: A498 renal
MCF7 breast = system: MCF7 breast
SK-MEL-5 melanoma = system: SK-MEL-5 melanoma
UO-31 renal = system: UO-31 renal
SNB-19 CNS = system: SNB-19 CNS
HL-60(TB) leukemia = system: HL-60(TB) leukemia
SR leukemia = system: SR leukemia

SMILES: CC[N+](CC)=c1cc2oc3cc(N(C)C)ccc3nc-2cc1C
- GI50 (NCI-H23 lung): 0.482 µM
- TGI (NCI-H23 lung): 6.79 µM
- GI50 (MALME-3M melanoma): 1.53 µM
- TGI (MALME-3M melanoma): 5.33 µM
- GI50 (NCI-H460 lung): 1.86 µM
- TGI (NCI-H460 lung): 73.6 µM
- GI50 (UACC-62 melanoma): 3.24 µM
- TGI (UACC-62 melanoma): 31.1 µM
- GI50 (K-562 leukemia): 1.78 µM
- TGI (K-562 leukemia): > 100 µM
- GI50 (HOP-92 NSCLC): 1.15 µM
- TGI (HOP-92 NSCLC): 8.19 µM
- GI50 (OVCAR-3 ovarian): 0.296 µM
- TGI (OVCAR-3 ovarian): 1.02 µM
- GI50 (KM12 colon): 0.975 µM
- TGI (KM12 colon): 14.7 µM
- GI50 (HCT-116 colon): 0.563 µM
- TGI (HCT-116 colon): 4.85 µM
- GI50 (SK-OV-3 ovarian): 4.45 µM
- TGI (SK-OV-3 ovarian): 98.7 µM
- GI50 (RXF 393 renal): 15.2 µM
- TGI (RXF 393 renal): 90.1 µM
- GI50 (SF-268 CNS): 1.18 µM
- TGI (SF-268 CNS): 3.48 µM
- GI50 (786-0 renal): 5.12 µM
- TGI (786-0 renal): > 100 µM
- GI50 (EKVX NSCLC): 1.53 µM
- TGI (EKVX NSCLC): 17.3 µM
- GI50 (CCRF-CEM leukemia): 2.3 µM
- TGI (CCRF-CEM leukemia): 65.4 µM
- GI50 (M14 melanoma): 0.471 µM
- TGI (M14 melanoma): 2.65 µM
- GI50 (NCI/ADR-RES ovarian): 4.23 µM
- TGI (NCI/ADR-RES ovarian): > 100 µM
- GI50 (SK-MEL-2 melanoma): 0.519 µM
- TGI (SK-MEL-2 melanoma): 4.82 µM
- GI50 (SW-620 colon): 0.791 µM
- TGI (SW-620 colon): 23 µM
- GI50 (HT29 colon): 3.47 µM
- TGI (HT29 colon): > 100 µM
- GI50 (OVCAR-8 ovarian): 2.11 µM
- TGI (OVCAR-8 ovarian): 9.93 µM
- GI50 (HCT-15 colon): 2.75 µM
- TGI (HCT-15 colon): > 100 µM
- GI50 (HOP-62 NSCLC): 1.98 µM
- TGI (HOP-62 NSCLC): 37.1 µM
- GI50 (U251 CNS): 0.538 µM
- TGI (U251 CNS): 6.06 µM
- GI50 (HS 578T breast): 10.5 µM
- TGI (HS 578T breast): 64.2 µM
- GI50 (UACC-257 melanoma): 0.306 µM
- TGI (UACC-257 melanoma): 1.56 µM
- GI50 (DU-145 prostate): 4.36 µM
- TGI (DU-145 prostate): 33.4 µM
- GI50 (BT-549 breast): 0.932 µM
- TGI (BT-549 breast): 13.6 µM
- GI50 (A549 NSCLC): 1.71 µM
- TGI (A549 NSCLC): 16 µM
- GI50 (SK-MEL-28 melanoma): 8.4 µM
- TGI (SK-MEL-28 melanoma): 42.1 µM
- GI50 (T-47D breast): 0.563 µM
- TGI (T-47D breast): > 100 µM
- GI50 (RPMI-8226 leukemia): 0.628 µM
- TGI (RPMI-8226 leukemia): 10.1 µM
- GI50 (CAKI-1 renal): 3.07 µM
- TGI (CAKI-1 renal): 19.6 µM
- GI50 (ACHN renal): 10.8 µM
- TGI (ACHN renal): > 100 µM
- GI50 (COLO 205 colon): 0.66 µM
- TGI (COLO 205 colon): 2.27 µM
- GI50 (TK-10 renal): 1.94 µM
- TGI (TK-10 renal): 8.38 µM
- GI50 (SF-539 CNS): 0.39 µM
- TGI (SF-539 CNS): 13.1 µM
- GI50 (SNB-75 CNS): 2.59 µM
- TGI (SNB-75 CNS): 11.1 µM
- GI50 (PC-3 prostate): 0.454 µM
- TGI (PC-3 prostate): > 100 µM
- GI50 (SF-295 CNS): 1.93 µM
- TGI (SF-295 CNS): 16.8 µM
- GI50 (LOX IMVI melanoma): 1.71 µM
- TGI (LOX IMVI melanoma): 12.3 µM
- GI50 (NCI-H226 lung): 6.76 µM
- TGI (NCI-H226 lung): 47.2 µM
- GI50 (MDA-MB-435): 2.15 µM
- TGI (MDA-MB-435): 17.7 µM
- GI50 (A498 renal): 1.54 µM
- TGI (A498 renal): 30.8 µM
- GI50 (MCF7 breast): 0.352 µM
- TGI (MCF7 breast): 2.48 µM
- GI50 (SK-MEL-5 melanoma): 1.04 µM
- TGI (SK-MEL-5 melanoma): 5.69 µM
- GI50 (UO-31 renal): 3.76 µM
- TGI (UO-31 renal): 41.9 µM
- GI50 (SNB-19 CNS): 2.9 µM
- TGI (SNB-19 CNS): > 100 µM
- GI50 (HL-60(TB) leukemia): 0.313 µM
- TGI (HL-60(TB) leukemia): 2.83 µM
- GI50 (SR leukemia): 2.74 µM
- TGI (SR leukemia): 75 µM
